Measurements taken from patent publication US20250382439A1, “BLUE LIGHT BLOCKING COMPOUND, BLUE LIGHT BLOCKING COMPOSITION, USE OF BLUE LIGHT BLOCKING COMPOUND, USE OF BLUE LIGHT BLOCKING COMPOSITION AND METHOD FOR PREPARING BLUE LIGHT BLOCKING COMPOUND” (Visco Vision Inc., priority 2024, published 2025).

Tests used:
Assay type in all cases: physicochemical
[1] = Miscibility evaluation: blue light blocking compound dissolved in HEMA and in a silicone hydrogel contact lens composition; settings: the higher the value, the greater the miscibility; for miscibility in silicone hydrogel contact lens composition: composition with hydrophilic monomer, first siloxane monomer and second siloxane monomer; for miscibility in HEMA: dissolved in 2-hydroxyethyl methacrylate (HEMA)
Protocol: The blue light blocking compounds of Examples 1 to 3 and Comparative Example 1 are dissolved in 2-hydroxyethyl methacrylate (represented by HEMA in the table, which is also the hydrophilic monomer used to manufacture the ophthalmic device) and a silicone hydrogel contact lens composition for observing the miscibility, and the results are shown in the following TABLE 1. The higher the value in the TABLE 1, the greater the miscibility. The silicone hydrogel contact lens composition used in the miscibility evaluation includes a polymerizable monomer, and the polymerizable monomer includes a hydrophilic monomer, a first siloxane monomer and a second siloxane monomer.

[2] = as above
[3] = Blue light absorbance evaluation of ophthalmic devices (absorption spectrum, UV-VIS spectrophotometer SHIMADZU UV-2600); settings: 380 nm to 460 nm
Excerpt: The above components can be mixed in a specific ratio to form the blue light blocking composition for manufacturing an ophthalmic device. In an embodiment, the blue light blocking composition of the present disclosure may be put into a contact lens mold, and components in the blue light blocking composition undergo a curing reaction (thermal curing reaction or photo curing reaction) through heating or irradiating light to form an ophthalmic device. The heating temperature may be between about 30° C. and about 150° C., and the heating time may be between about 1 hour and 12 hours. In an embodiment, the reaction conditions can be heating at 30-70° C. for 0-2 hours, heating at 70-100° C. for 2-4 hours, and heating at 100-150° C. for 4-12 hours. In an embodiment, a hydration process and/or a sterilization process can be performed after the curing reaction. […]
The ophthalmic devices of Examples 4 to 9 and Comparative Examples 2 and 3 are subjected to a blue light absorbance evaluation. The blue light absorbance is measured by absorption spectrum with UV-VIS spectrophotometer (SHIMADZU UV-2600). The blue light absorbance represents the amount of blue light with a wavelength between 380 nm and 460 nm that are absorbed by silicone hydrogel contact lens.

miscibility in silicone hydrogel contact lens composition [1]	miscibility in HEMA [1]	blue light absorbance ([3]; ophthalmic device from silicone hydrogel contact lens composition with 1.5% of the compound)	blue light absorbance ([3]; ophthalmic device from silicone hydrogel contact lens composition with 2% of the compound)	Structure (SMILES)	miscibility with the silicone hydrogel contact lens compositions (observation) ([2]; addition amount 1.0%)	usable addition amount in silicone hydrogel contact lens composition ([2]; concluded from TABLE 2)
4.0%	25%	56.1%	65.3%	C=C(C)C(=O)OCCOC(=O)/C(=C/c1ccc(N(C)C)cc1)C(=O)OC [Example 1]	–	–
4.6%	67%	–	–	C=C(C)C(=O)OCCOC(=O)C(=Cc1ccc(N(C)C)cc1)C(=O)OCCOC(=O)C(=C)C [Example 2]	–	–
1.5%	47%	–	–	C=C(C)C(=O)OCCNC(=O)/C(=C/c1ccc(N(C)C)cc1)C(=O)OC [Example 3]	–	–

Structure (SMILES)	miscibility in silicone hydrogel contact lens composition [1]	miscibility in HEMA [1]	blue light absorbance ([3]; ophthalmic device from silicone hydrogel contact lens composition with 1.5% of the compound)	blue light absorbance ([3]; ophthalmic device from silicone hydrogel contact lens composition with 2% of the compound)	miscibility with the silicone hydrogel contact lens compositions (observation) ([2]; addition amount 1.0%)	usable addition amount in silicone hydrogel contact lens composition ([2]; concluded from TABLE 2)
C=CS(=O)(=O)c1cc(OC)c(/N=N/C2C(=O)N(c3ccc(S(=O)(=O)[O-])cc3)N=C2C)cc1C.[Na+] (stereo not drawn) [Comparative Example 1, reference compound]	0.1%	5%	–	–	precipitation occurs	less than 1.0%
